{
  "source": "ChEMBL document CHEMBL3286226",
  "about": "“Discovery of thienopyrimidine-based FLT3 inhibitors from the structural modification of known IKKβ inhibitors” (Bioorg Med Chem Lett, 2014)",
  "key": {"[1]": {"test_system": "RAW264.7", "assay": "cells", "conditions": "Mus musculus; call rule not given here"}, "[2]": {"test_system": "Receptor-type tyrosine-protein kinase FLT3 (Homo sapiens), P36888 [D835Y]", "assay": "Inhibition of human FLT3 kinase D835Y mutant assessed as residual activity at 10 uM relative to control"}, "[3]": {"biological_target": "T1, Inhibitor of nuclear factor kappa-B kinase subunit beta (Homo sapiens, UniProt O14920)", "T1 sequence (O14920 whole entry)": "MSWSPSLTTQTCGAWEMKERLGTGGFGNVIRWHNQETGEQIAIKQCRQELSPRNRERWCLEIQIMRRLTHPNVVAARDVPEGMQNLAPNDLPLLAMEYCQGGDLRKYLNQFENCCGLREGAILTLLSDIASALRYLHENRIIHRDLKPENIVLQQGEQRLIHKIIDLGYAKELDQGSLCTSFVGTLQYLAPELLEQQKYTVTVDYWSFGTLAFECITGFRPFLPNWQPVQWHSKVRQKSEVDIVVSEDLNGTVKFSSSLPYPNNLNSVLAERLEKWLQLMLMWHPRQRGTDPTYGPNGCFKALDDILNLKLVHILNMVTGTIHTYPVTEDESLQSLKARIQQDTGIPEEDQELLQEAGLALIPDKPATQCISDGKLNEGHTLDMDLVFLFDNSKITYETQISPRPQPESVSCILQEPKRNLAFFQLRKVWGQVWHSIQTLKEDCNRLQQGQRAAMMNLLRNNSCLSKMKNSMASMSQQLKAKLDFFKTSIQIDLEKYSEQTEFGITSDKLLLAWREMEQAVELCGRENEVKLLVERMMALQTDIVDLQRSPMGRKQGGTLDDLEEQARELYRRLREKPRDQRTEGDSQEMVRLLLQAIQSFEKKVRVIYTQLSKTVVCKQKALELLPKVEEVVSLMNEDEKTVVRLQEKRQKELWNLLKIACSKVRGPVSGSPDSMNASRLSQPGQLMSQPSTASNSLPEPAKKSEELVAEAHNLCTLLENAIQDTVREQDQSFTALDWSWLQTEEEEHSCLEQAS", "description": "Inhibition of IKKbeta kinase (unknown origin) by Lance ULight system"}, "[4]": {"test_system": "RAW264.7", "assay": "cells", "conditions": "Mus musculus", "remark": "listed apart in the source", "description": "Antiinflammatory activity against mouse RAW264.7 cells assessed as reduction of LPS-induced TNF-alpha production"}, "[5]": {"test_system": "HL-60", "assay": "Growth inhibition of human HL60 cells by XTT assay", "assay_type": "functional"}, "[6]": {"biological_target": "T1, Inhibitor of nuclear factor kappa-B kinase subunit beta", "remark": "listed apart in the source", "description": "Inhibition of IKKbeta kinase (unknown origin) by Radioisotope system"}, "[7]": {"assay": "Growth inhibition of human THP1 cells by XTT assay", "assay_type": "functional", "conditions": "THP-1"}, "[8]": {"biological_target": "Receptor-type tyrosine-protein kinase FLT3 (Homo sapiens) (UniProt P36888)", "assay": "Inhibition of human FLT3 kinase assessed as residual activity at 10 uM relative to control"}, "[9]": {"test_system": "MV4-11", "assay": "Growth inhibition of human MV4-11 cells by XTT assay", "assay_type": "functional"}, "[10]": {"test_system": "K562", "assay": "Growth inhibition of human K562 cells by XTT assay", "assay_type": "functional", "design": "scale not given: the % may be the effect or the level left"}, "[11]": {"biological_target": "T2, Receptor-type tyrosine-protein kinase FLT3 (Homo sapiens, UniProt P36888)", "T2 sequence (P36888 whole entry)": "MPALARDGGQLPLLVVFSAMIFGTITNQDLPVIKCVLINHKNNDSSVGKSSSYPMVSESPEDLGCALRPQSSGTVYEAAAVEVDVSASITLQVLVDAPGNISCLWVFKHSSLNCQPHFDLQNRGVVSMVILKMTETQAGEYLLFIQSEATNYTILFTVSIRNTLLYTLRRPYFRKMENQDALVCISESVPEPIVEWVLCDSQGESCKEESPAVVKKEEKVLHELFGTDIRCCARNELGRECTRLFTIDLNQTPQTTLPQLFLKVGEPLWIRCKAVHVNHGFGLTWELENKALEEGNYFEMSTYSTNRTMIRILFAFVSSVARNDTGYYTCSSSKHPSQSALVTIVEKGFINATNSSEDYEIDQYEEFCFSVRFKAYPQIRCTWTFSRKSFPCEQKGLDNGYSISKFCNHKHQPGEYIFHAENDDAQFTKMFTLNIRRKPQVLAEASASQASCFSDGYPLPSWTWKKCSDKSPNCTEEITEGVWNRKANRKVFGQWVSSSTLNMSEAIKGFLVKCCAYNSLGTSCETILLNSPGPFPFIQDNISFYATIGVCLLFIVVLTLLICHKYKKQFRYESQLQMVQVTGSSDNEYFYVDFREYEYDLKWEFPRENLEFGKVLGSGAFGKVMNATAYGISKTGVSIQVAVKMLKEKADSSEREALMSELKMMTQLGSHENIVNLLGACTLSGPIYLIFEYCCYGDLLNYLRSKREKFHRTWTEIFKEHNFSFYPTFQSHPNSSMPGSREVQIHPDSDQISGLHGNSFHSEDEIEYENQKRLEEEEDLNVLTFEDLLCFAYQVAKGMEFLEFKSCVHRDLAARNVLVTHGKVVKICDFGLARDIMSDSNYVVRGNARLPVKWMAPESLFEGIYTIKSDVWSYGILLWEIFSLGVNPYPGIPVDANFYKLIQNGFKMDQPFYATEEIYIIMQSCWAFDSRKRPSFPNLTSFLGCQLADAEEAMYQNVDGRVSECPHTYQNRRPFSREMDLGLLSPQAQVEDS", "description": "Inhibition of FLT3 kinase (unknown origin)"}},
  "data": [
    {"compound": "CC1=CC(=O)N(Nc2nc(-c3cccs3)nc3scc(C)c23)C1=O", "values": [
      {"measurement": "IC50", "setting": "[1]", "result": 1920, "unit": "nM"},
      {"measurement": "Activity", "setting": "[2]", "result": 2, "unit": "%"},
      {"measurement": "IC50", "setting": "[3]", "result": "> 50000", "unit": "nM"},
      {"measurement": "IC50", "setting": "[4]", "result": 4220, "unit": "nM"},
      {"measurement": "GI50", "setting": "[5]", "result": 264, "unit": "nM"},
      {"measurement": "IC50", "setting": "[6]", "result": "Not Active"},
      {"measurement": "GI50", "setting": "[7]", "result": 111, "unit": "nM"},
      {"measurement": "Activity", "setting": "[8]", "result": 5, "unit": "%"},
      {"measurement": "GI50", "setting": "[9]", "result": 3, "unit": "nM"},
      {"measurement": "Activity", "setting": "[10]", "result": 0.257, "unit": "%"},
      {"measurement": "IC50", "setting": "[11]", "result": 65, "unit": "nM"}
    ]}
  ]
}
